In patent publication US10294202B2, “Pyrrolidinones as herbicides” (FMC Corporation, priority 2013, dated 2019):

What was measured:
johnsongrass = test: Test C pre-/postemergence herbicide test; format: in vivo, Sorghum halepense
Outline: (§1)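 Response scores range from 0, meaning no effect, to 100, meaning complete control, assigned visually by comparison with controls roughly two weeks (13 to 15 days) after spraying. Applications were made preemergence to seeded loam–sand soil and postemergence to 1- to 4-leaf plants.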

galium = test: Test C pre-/postemergence herbicide test; format: in vivo, Galium aparine
Outline: as §1

blackgrass = test: Test C pre-/postemergence herbicide test; format: in vivo, Alopecurus myosuroides; settings: for Blackgrass plant response rating: scale 0 to 100, 0 is no effect and 100 is complete control
Outline: as §1

corn [1] = test: Test C pre-/postemergence herbicide test; format: in vivo, Zea mays
Outline: as §1

ragweed = test: Test C pre-/postemergence herbicide test; format: in vivo, Ambrosia elatior
Outline: as §1

giant foxtail = test: Test A pre-/postemergence herbicide test; format: in vivo, Setaria faberii; settings: for Plant response rating, Foxtail, Giant: 0 to 100 scale
Outline: (§2)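 Scoring was visual, relative to untreated controls, on a 0–100 scale after about 10 greenhouse days. Preemergence treatment used a directed soil spray over seeded loam/sand; postemergence treatment targeted one- to two-leaf plants of 2–10 cm.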

oilseed rape = test: Test C pre-/postemergence herbicide test; format: in vivo, Brassica napus
Outline: as §1

sedge, umbrella = test: Test B flooded paddy test; format: in vivo, Cyperus difformis; settings: 500 g ai/ha, Flood; scale of 0 to 100 where 0 is no effect and 100 is complete control
Outline: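 2-leaf plants; flood 3 cm over soil; compound into paddy water; depth held. Greenhouse 13–15 d. Visual rating vs controls, 0 (no effect) to 100 (complete control); dash = not tested.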

wheat = test: Test A pre-/postemergence herbicide test; format: in vivo, Triticum aestivum; settings: Postemergence; for Plant response rating, Wheat: 125 g ai/ha, 0 to 100 scale; for Wheat plant response rating (0 to 100 scale, 0 is no effect, 100 is complete control): 500 g ai/ha
Outline: as §2

corn [2] = test: Test A pre-/postemergence herbicide test; format: in vivo, Zea mays; settings: Postemergence
Outline: as §2

foxtail, giant = test: Test C pre-/postemergence herbicide test; format: in vivo, Setaria faberii
Outline: as §1

[3] = Postemergence, 31 g ai/ha, scale 0 to 100 (0 no effect, 100 complete control)
[4] = Postemergence, 62 g ai/ha, scale 0 (no effect) to 100 (complete control)
[5] = Postemergence, 125 g ai/ha, scale 0 to 100 (0 no effect, 100 complete control)
[6] = Postemergence, 250 g ai/ha, scale 0 to 100 (0 no effect, 100 complete control)
[7] = Preemergence, 31 g ai/ha, scale 0 to 100, 0 is no effect and 100 is complete control
[8] = Preemergence, 62 g ai/ha, scale 0 to 100
[9] = Preemergence, 125 g ai/ha, scale 0 to 100 (0 no effect, 100 complete control)
[10] = 125 g ai/ha, visual rating, 0 no effect, 100 complete control, approximately 10 days, preemergence
[11] = Preemergence, 62 g ai/ha, scale 0 to 100 (0 no effect, 100 complete control)

With `O=C1NCC(c2ccc(F)cc2)C1C(=O)Nc1ccc(F)c(F)c1F` (racemic) [Compound 120] the “Plant response rating, Johnsongrass” value (johnsongrass; [3]) was 0, the “Plant response rating, Johnsongrass” value (johnsongrass; [4]) was 0 and the “Plant response rating, Johnsongrass” value (johnsongrass; [5]) was 0. The “Plant response rating, Johnsongrass” value (johnsongrass; [6]) was 0, the “Johnsongrass plant response rating” value (johnsongrass; [7]) was 0 and the “Plant response rating, Johnsongrass” value (johnsongrass; [8]) was 0. The “Plant response rating, Johnsongrass” value (johnsongrass; [9]) was 25, the “Plant response rating (scale of 0 to 100), Johnsongrass” value (johnsongrass; Preemergence, 250 g ai/ha) was 65 and the “Galium plant response rating” value (galium; [7]) was 5. For the same compound, the “Plant response rating, Galium” value (galium; [8]) was 95, the “Plant response rating, Galium” value (galium; [9]) was 50 and the “Plant response rating (scale of 0 to 100), Galium” value (galium; Preemergence, 250 g ai/ha) was 90. The “Plant response rating, Blackgrass” value (blackgrass; [3]) was 0, the “Plant response rating, Blackgrass” value (blackgrass; [4]) was 0 and the “Plant response rating, Blackgrass” value (blackgrass; [5]) was 0. For the same compound, the “Plant response rating, Blackgrass” value (blackgrass; [6]) was 0, the “Blackgrass plant response rating” value (blackgrass; Preemergence, 31 g ai/ha) was 35 and the “Plant response rating, Blackgrass” value (blackgrass; [8]) was 50. For the same compound, the “Plant response rating, Blackgrass” value (blackgrass; [9]) was 50, the “Plant response rating (scale of 0 to 100), Blackgrass” value (blackgrass; Preemergence, 250 g ai/ha) was 70 and the “Plant response rating, Corn” value (corn [1]; [3]) was 0. The “Plant response rating, Corn” value (corn [1]; [4]) was 0, the “Plant response rating, Corn” value (corn [1]; [5]) was 0 and the “Plant response rating, Corn” value (corn [1]; [6]) was 0. The “Corn plant response rating” value (corn [1]; [7]) was 0, the “Plant response rating, Corn” value (corn [1]; [8]) was 0 and the “Plant response rating, Corn” value (corn [1]; [9]) was 20. The “Plant response rating (scale of 0 to 100), Corn” value (corn [1]; Preemergence, 250 g ai/ha) was 65, the “Plant response rating, Ragweed” value (ragweed; [3]) was 20 and the “Plant response rating, Ragweed” value (ragweed; [4]) was 45. For the same compound, the “Plant response rating, Ragweed” value (ragweed; [5]) was 40, the “Plant response rating, Ragweed” value (ragweed; [6]) was 45 and the “Ragweed plant response rating” value (ragweed; [7]) was 0. For the same compound, the “Plant response rating, Ragweed” value (ragweed; [8]) was 20, the “Plant response rating, Ragweed” value (ragweed; [9]) was 55 and the “Plant response rating (scale of 0 to 100), Ragweed” value (ragweed; Preemergence, 250 g ai/ha) was 80. The “Plant response rating, Foxtail, Giant” value (giant foxtail; [10]) was 90, the “Plant response rating, Foxtail, Giant” value (giant foxtail; Postemergence, 125 g ai/ha, 0 no effect, 100 complete control) was 80 and the “Foxtail, Giant plant response rating (0 to 100 scale, 0 is no effect, 100 is complete control)” value (giant foxtail; Postemergence, 500 g ai/ha) was 90. For the same compound, the “Plant response rating, Foxtail, Giant” value (giant foxtail; preemergence, 500 g ai/ha) was 90, the “Plant response rating, Oilseed Rape” value (oilseed rape; [3]) was 0 and the “Plant response rating, Oilseed Rape” value (oilseed rape; [4]) was 0. For the same compound, the “Plant response rating, Oilseed Rape” value (oilseed rape; [5]) was 0, the “Plant response rating, Oilseed Rape” value (oilseed rape; [6]) was 0 and the “Oilseed Rape plant response rating” value (oilseed rape; [7]) was 0. For the same compound, the “Plant response rating, Oilseed Rape” value (oilseed rape; [8]) was 0, the “Plant response rating, Oilseed Rape” value (oilseed rape; [9]) was 70 and the “Plant response rating (scale of 0 to 100), Oilseed Rape” value (oilseed rape; Preemergence, 250 g ai/ha) was 90. The “Plant response rating, Sedge, Umbrella” value (sedge, umbrella) was 0, the “Plant response rating, Wheat” value (wheat; 0 no effect, 100 complete control) was 20 and the “Wheat plant response rating (0 to 100 scale, 0 is no effect, 100 is complete control)” value (wheat) was 60. For the same compound, the “Plant response rating, Corn” value (corn [2]; 125 g ai/ha, 0 to 100 scale, 0 no effect, 100 complete control) was 20, the “Plant response rating, Corn” value (corn [2]; 500 g ai/ha, 0 to 100 scale (0 no effect, 100 complete control)) was 80 and the “Plant response rating, Foxtail, Giant” value (foxtail, giant; [3]) was 25. The “Plant response rating, Foxtail, Giant” value (foxtail, giant; [4]) was 65, the “Plant response rating, Foxtail, Giant” value (foxtail, giant; [5]) was 75 and the “Plant response rating, Foxtail, Giant” value (foxtail, giant; [6]) was 85. For the same compound, the “Foxtail, Giant plant response rating” value (foxtail, giant; [7]) was 90, the “Plant response rating, Foxtail, Giant” value (foxtail, giant; [8]) was 95 and the “Plant response rating, Foxtail, Giant” value (foxtail, giant; [9]) was 98. The “Plant response rating (scale of 0 to 100), Foxtail, Giant” value (foxtail, giant; Preemergence, 250 g ai/ha) was 98.

In the case of `O=C1NCC(c2ccc(C(F)(F)F)cc2)C1C(=O)Nc1cccc(F)c1F` (racemic) [Compound 202], the “Plant response rating, Johnsongrass” value (johnsongrass; [3]) is reported as 0, the “Plant response rating, Johnsongrass” value (johnsongrass; [4]) is reported as 20 and the “Plant response rating, Johnsongrass” value (johnsongrass; [5]) is reported as 25. The “Plant response rating, Johnsongrass” value (johnsongrass; [6]) was 25, the “Johnsongrass plant response rating” value (johnsongrass; [7]) was 10 and the “Johnsongrass plant response rating” value (johnsongrass; [11]) was 60. The “Plant response rating, Johnsongrass” value (johnsongrass; [9]) was 70, the “Plant response rating (scale of 0 to 100), Johnsongrass” value (johnsongrass; Preemergence, 250 g ai/ha) was 85 and the “Plant response rating, Galium” value (galium; [3]) was 80. For the same compound, the “Plant response rating, Galium” value (galium; [4]) was 80, the “Plant response rating, Galium” value (galium; [5]) was 80 and the “Plant response rating, Galium” value (galium; [6]) was 80. For the same compound, the “Galium plant response rating” value (galium; [7]) was 85, the “Galium plant response rating” value (galium; [11]) was 90 and the “Plant response rating, Galium” value (galium; [9]) was 90. The “Plant response rating (scale of 0 to 100), Galium” value (galium; Preemergence, 250 g ai/ha) was 90, the “Plant response rating, Blackgrass” value (blackgrass; [3]) was 0 and the “Plant response rating, Blackgrass” value (blackgrass; [4]) was 0. The “Plant response rating, Blackgrass” value (blackgrass; [5]) was 5, the “Plant response rating, Blackgrass” value (blackgrass; [6]) was 10 and the “Blackgrass plant response rating” value (blackgrass; Preemergence, 31 g ai/ha) was 70. For the same compound, the “Plant response rating, Blackgrass” value (blackgrass; [8]) was 80, the “Plant response rating, Blackgrass” value (blackgrass; [9]) was 90 and the “Plant response rating (scale of 0 to 100), Blackgrass” value (blackgrass; Preemergence, 250 g ai/ha) was 90. For the same compound, the “Plant response rating, Corn” value (corn [1]; [3]) was 0, the “Plant response rating, Corn” value (corn [1]; [4]) was 0 and the “Plant response rating, Corn” value (corn [1]; [5]) was 10. For the same compound, the “Plant response rating, Corn” value (corn [1]; [6]) was 35, the “Corn plant response rating” value (corn [1]; [7]) was 20 and the “Corn plant response rating” value (corn [1]; [11]) was 85. For the same compound, the “Plant response rating, Corn” value (corn [1]; [9]) was 75, the “Plant response rating (scale of 0 to 100), Corn” value (corn [1]; Preemergence, 250 g ai/ha) was 85 and the “Plant response rating, Ragweed” value (ragweed; [3]) was 70. The “Plant response rating, Ragweed” value (ragweed; [4]) was 75, the “Plant response rating, Ragweed” value (ragweed; [5]) was 80 and the “Plant response rating, Ragweed” value (ragweed; [6]) was 85. For the same compound, the “Ragweed plant response rating” value (ragweed; [7]) was 65, the “Ragweed plant response rating” value (ragweed; [11]) was 85 and the “Plant response rating, Ragweed” value (ragweed; [9]) was 85. For the same compound, the “Plant response rating (scale of 0 to 100), Ragweed” value (ragweed; Preemergence, 250 g ai/ha) was 100, the “Plant response rating, Foxtail, Giant” value (giant foxtail; [10]) was 90 and the “Plant response rating, Foxtail, Giant” value (giant foxtail; Postemergence, 125 g ai/ha, 0 is no effect, 100 is complete control) was 90. The “Foxtail, Giant plant response rating (0 to 100 scale, 0 is no effect, 100 is complete control)” value (giant foxtail; Postemergence, 500 g ai/ha) was 90, the “Plant response rating, Foxtail, Giant” value (giant foxtail; preemergence, 500 g ai/ha, 0 is no effect and 100 is complete control) was 90 and the “Plant response rating, Oilseed Rape” value (oilseed rape; [3]) was 0. For the same compound, the “Plant response rating, Oilseed Rape” value (oilseed rape; [4]) was 0, the “Plant response rating, Oilseed Rape” value (oilseed rape; [5]) was 50 and the “Plant response rating, Oilseed Rape” value (oilseed rape; [6]) was 50. The “Oilseed Rape plant response rating” value (oilseed rape; [7]) was 25, the “Oilseed Rape plant response rating” value (oilseed rape; [11]) was 80 and the “Plant response rating, Oilseed Rape” value (oilseed rape; [9]) was 85. The “Plant response rating (scale of 0 to 100), Oilseed Rape” value (oilseed rape; Preemergence, 250 g ai/ha) was 90, the “Plant response rating, Sedge, Umbrella” value (sedge, umbrella) was 0 and the “Plant response rating, Wheat” value (wheat; 0 is no effect, 100 is complete control) was 40. The “Wheat plant response rating (0 to 100 scale, 0 is no effect, 100 is complete control)” value (wheat) was 50, the “Plant response rating, Corn” value (corn [2]; 125 g ai/ha, 0 to 100 scale, 0 is no effect, 100 is complete control) was 80 and the “Corn plant response rating (0 to 100 scale, 0 is no effect, 100 is complete control)” value (corn [2]; 500 g ai/ha) was 90. The “Plant response rating, Foxtail, Giant” value (foxtail, giant; [3]) was 5, the “Plant response rating, Foxtail, Giant” value (foxtail, giant; [4]) was 25 and the “Plant response rating, Foxtail, Giant” value (foxtail, giant; [5]) was 70. The “Plant response rating, Foxtail, Giant” value (foxtail, giant; [6]) was 85, the “Foxtail, Giant plant response rating” value (foxtail, giant; [7]) was 90 and the “Foxtail, Giant plant response rating” value (foxtail, giant; [11]) was 90. The “Plant response rating, Foxtail, Giant” value (foxtail, giant; [9]) was 95 and the “Plant response rating (scale of 0 to 100), Foxtail, Giant” value (foxtail, giant; Preemergence, 250 g ai/ha) was 98.
